{"source": "ChEMBL document CHEMBL1240428", "about": "“Conventional and microwave assisted synthesis of some new N-[(4-oxo-2-substituted aryl -1, 3-thiazolidine)-acetamidyl]-5-nitroindazoles and its antimicrobial activity” (2010)"}
{"tested_on": "Escherichia coli", "assay": "Antibacterial activity against Escherichia coli at 50 ug/mL", "assay_type": "functional", "conditions": "read-out: IZ", "units": {"zone of inhibition at 50 µg/mL": "mm"}}
{"smiles": "CN(C)c1ccc(/C=N/NC(=O)Cn2ncc3cc([N+](=O)[O-])ccc32)cc1", "zone of inhibition at 50 µg/mL": 10.6}
{"smiles": "O=C(Cn1ncc2cc([N+](=O)[O-])ccc21)NN1C(=O)CSC1c1ccccc1", "note": "(centres undefined)", "zone of inhibition at 50 µg/mL": 17.2}
{"smiles": "O=C(Cn1ncc2cc([N+](=O)[O-])ccc21)NN1C(=O)CSC1c1ccccc1O", "note": "(centres undefined)", "zone of inhibition at 50 µg/mL": 18.4}
{"tested_on": "Escherichia coli", "assay": "Antibacterial activity against Escherichia coli at 100 ug/mL", "assay_type": "functional", "conditions": "read-out: IZ", "units": {"zone of inhibition at 100 µg/mL": "mm"}}
{"smiles": "CN(C)c1ccc(/C=N/NC(=O)Cn2ncc3cc([N+](=O)[O-])ccc32)cc1", "zone of inhibition at 100 µg/mL": 12.5}
{"smiles": "O=C(Cn1ncc2cc([N+](=O)[O-])ccc21)NN1C(=O)CSC1c1ccccc1", "note": "(centres undefined)", "zone of inhibition at 100 µg/mL": 19.1}
{"smiles": "O=C(Cn1ncc2cc([N+](=O)[O-])ccc21)NN1C(=O)CSC1c1ccccc1O", "note": "(centres undefined)", "zone of inhibition at 100 µg/mL": 20.5}
{"tested_on": "Bacillus subtilis", "assay": "Antibacterial activity against Bacillus subtilis at 50 ug/mL", "assay_type": "functional", "conditions": "read-out: IZ", "units": {"zone of inhibition at 50 µg/mL": "mm"}}
{"smiles": "CN(C)c1ccc(/C=N/NC(=O)Cn2ncc3cc([N+](=O)[O-])ccc32)cc1", "zone of inhibition at 50 µg/mL": 7.5}
{"smiles": "O=C(Cn1ncc2cc([N+](=O)[O-])ccc21)NN1C(=O)CSC1c1ccccc1", "note": "(centres undefined)", "zone of inhibition at 50 µg/mL": 13.5}
{"smiles": "O=C(Cn1ncc2cc([N+](=O)[O-])ccc21)NN1C(=O)CSC1c1ccccc1O", "note": "(centres undefined)", "zone of inhibition at 50 µg/mL": 14.7}
{"tested_on": "Bacillus subtilis", "assay": "Antibacterial activity against Bacillus subtilis at 100 ug/mL", "assay_type": "functional", "conditions": "read-out: IZ", "units": {"zone of inhibition at 100 µg/mL": "mm"}}
{"smiles": "CN(C)c1ccc(/C=N/NC(=O)Cn2ncc3cc([N+](=O)[O-])ccc32)cc1", "zone of inhibition at 100 µg/mL": 11}
{"smiles": "O=C(Cn1ncc2cc([N+](=O)[O-])ccc21)NN1C(=O)CSC1c1ccccc1", "note": "(centres undefined)", "zone of inhibition at 100 µg/mL": 17.4}
{"smiles": "O=C(Cn1ncc2cc([N+](=O)[O-])ccc21)NN1C(=O)CSC1c1ccccc1O", "note": "(centres undefined)", "zone of inhibition at 100 µg/mL": 18.9}
{"tested_on": "Aspergillus flavus", "assay": "Antifungal activity against Aspergillus flavus at 50 ug/mL", "assay_type": "functional", "conditions": "read-out: IZ", "units": {"zone of inhibition at 50 µg/mL": "mm"}}
{"smiles": "CN(C)c1ccc(/C=N/NC(=O)Cn2ncc3cc([N+](=O)[O-])ccc32)cc1", "zone of inhibition at 50 µg/mL": 9.5}
{"smiles": "O=C(Cn1ncc2cc([N+](=O)[O-])ccc21)NN1C(=O)CSC1c1ccccc1", "note": "(centres undefined)", "zone of inhibition at 50 µg/mL": 16}
{"smiles": "O=C(Cn1ncc2cc([N+](=O)[O-])ccc21)NN1C(=O)CSC1c1ccccc1O", "note": "(centres undefined)", "zone of inhibition at 50 µg/mL": 17.3}
{"tested_on": "Aspergillus flavus", "assay": "Antifungal activity against Aspergillus flavus at 100 ug/mL", "assay_type": "functional", "conditions": "read-out: IZ", "units": {"zone of inhibition at 100 µg/mL": "mm"}}
{"smiles": "CN(C)c1ccc(/C=N/NC(=O)Cn2ncc3cc([N+](=O)[O-])ccc32)cc1", "zone of inhibition at 100 µg/mL": 12.4}
{"smiles": "O=C(Cn1ncc2cc([N+](=O)[O-])ccc21)NN1C(=O)CSC1c1ccccc1", "note": "(centres undefined)", "zone of inhibition at 100 µg/mL": 19}
{"smiles": "O=C(Cn1ncc2cc([N+](=O)[O-])ccc21)NN1C(=O)CSC1c1ccccc1O", "note": "(centres undefined)", "zone of inhibition at 100 µg/mL": 20.4}
{"tested_on": "Penicillium citrinum", "assay": "Antifungal activity against Penicillium citrinum at 50 ug/mL", "assay_type": "functional", "conditions": "read-out: IZ", "units": {"zone of inhibition at 50 µg/mL": "mm"}}
{"smiles": "CN(C)c1ccc(/C=N/NC(=O)Cn2ncc3cc([N+](=O)[O-])ccc32)cc1", "zone of inhibition at 50 µg/mL": 8.2}
{"smiles": "O=C(Cn1ncc2cc([N+](=O)[O-])ccc21)NN1C(=O)CSC1c1ccccc1", "note": "(centres undefined)", "zone of inhibition at 50 µg/mL": 14.8}
{"smiles": "O=C(Cn1ncc2cc([N+](=O)[O-])ccc21)NN1C(=O)CSC1c1ccccc1O", "note": "(centres undefined)", "zone of inhibition at 50 µg/mL": 16}
{"tested_on": "Penicillium citrinum", "assay": "Antifungal activity against Penicillium citrinum at 100 ug/mL", "assay_type": "functional", "conditions": "read-out: IZ", "units": {"zone of inhibition at 100 µg/mL": "mm"}}
{"smiles": "CN(C)c1ccc(/C=N/NC(=O)Cn2ncc3cc([N+](=O)[O-])ccc32)cc1", "zone of inhibition at 100 µg/mL": 11.5}
{"smiles": "O=C(Cn1ncc2cc([N+](=O)[O-])ccc21)NN1C(=O)CSC1c1ccccc1", "note": "(centres undefined)", "zone of inhibition at 100 µg/mL": 18.4}
{"smiles": "O=C(Cn1ncc2cc([N+](=O)[O-])ccc21)NN1C(=O)CSC1c1ccccc1O", "note": "(centres undefined)", "zone of inhibition at 100 µg/mL": 19.7}
{"tested_on": "Fusarium oxysporum", "assay": "Antifungal activity against Fusarium oxysporum at 50 ug/mL", "assay_type": "functional", "conditions": "read-out: IZ", "units": {"zone of inhibition at 50 µg/mL": "mm"}}
{"smiles": "CN(C)c1ccc(/C=N/NC(=O)Cn2ncc3cc([N+](=O)[O-])ccc32)cc1", "zone of inhibition at 50 µg/mL": 11.4}
{"smiles": "O=C(Cn1ncc2cc([N+](=O)[O-])ccc21)NN1C(=O)CSC1c1ccccc1", "note": "(centres undefined)", "zone of inhibition at 50 µg/mL": 17.1}
{"smiles": "O=C(Cn1ncc2cc([N+](=O)[O-])ccc21)NN1C(=O)CSC1c1ccccc1O", "note": "(centres undefined)", "zone of inhibition at 50 µg/mL": 18.5}
{"tested_on": "Fusarium oxysporum", "assay": "Antifungal activity against Fusarium oxysporum at 100 ug/mL", "assay_type": "functional", "conditions": "read-out: IZ", "units": {"zone of inhibition at 100 µg/mL": "mm"}}
{"smiles": "CN(C)c1ccc(/C=N/NC(=O)Cn2ncc3cc([N+](=O)[O-])ccc32)cc1", "zone of inhibition at 100 µg/mL": 13.8}
{"smiles": "O=C(Cn1ncc2cc([N+](=O)[O-])ccc21)NN1C(=O)CSC1c1ccccc1", "note": "(centres undefined)", "zone of inhibition at 100 µg/mL": 20}
{"smiles": "O=C(Cn1ncc2cc([N+](=O)[O-])ccc21)NN1C(=O)CSC1c1ccccc1O", "note": "(centres undefined)", "zone of inhibition at 100 µg/mL": 21.4}
{"tested_on": "Escherichia coli", "assay": "Antibacterial activity against Escherichia coli", "assay_type": "functional", "conditions": "not given", "units": {"MIC": "µg/mL"}}
{"smiles": "CN(C)c1ccc(/C=N/NC(=O)Cn2ncc3cc([N+](=O)[O-])ccc32)cc1", "MIC": 30}
{"smiles": "O=C(Cn1ncc2cc([N+](=O)[O-])ccc21)NN1C(=O)CSC1c1ccccc1", "note": "(centres undefined)", "MIC": 18}
{"smiles": "O=C(Cn1ncc2cc([N+](=O)[O-])ccc21)NN1C(=O)CSC1c1ccccc1O", "note": "(centres undefined)", "MIC": 16}
{"tested_on": "Bacillus subtilis", "assay": "Antibacterial activity against Bacillus subtilis", "assay_type": "functional", "conditions": "not given", "units": {"MIC": "µg/mL"}}
{"smiles": "CN(C)c1ccc(/C=N/NC(=O)Cn2ncc3cc([N+](=O)[O-])ccc32)cc1", "MIC": 41}
{"smiles": "O=C(Cn1ncc2cc([N+](=O)[O-])ccc21)NN1C(=O)CSC1c1ccccc1", "note": "(centres undefined)", "MIC": 23}
{"smiles": "O=C(Cn1ncc2cc([N+](=O)[O-])ccc21)NN1C(=O)CSC1c1ccccc1O", "note": "(centres undefined)", "MIC": 21}
{"tested_on": "Aspergillus flavus", "assay": "Antifungal activity against Aspergillus flavus", "assay_type": "functional", "conditions": "not given", "units": {"MIC": "µg/mL"}}
{"smiles": "CN(C)c1ccc(/C=N/NC(=O)Cn2ncc3cc([N+](=O)[O-])ccc32)cc1", "MIC": 27}
{"smiles": "O=C(Cn1ncc2cc([N+](=O)[O-])ccc21)NN1C(=O)CSC1c1ccccc1", "note": "(centres undefined)", "MIC": 19}
{"smiles": "O=C(Cn1ncc2cc([N+](=O)[O-])ccc21)NN1C(=O)CSC1c1ccccc1O", "note": "(centres undefined)", "MIC": 18}
{"tested_on": "Penicillium citrinum", "assay": "Antifungal activity against Penicillium citrinum", "assay_type": "functional", "conditions": "not given", "units": {"MIC": "µg/mL"}}
{"smiles": "CN(C)c1ccc(/C=N/NC(=O)Cn2ncc3cc([N+](=O)[O-])ccc32)cc1", "MIC": 36}
{"smiles": "O=C(Cn1ncc2cc([N+](=O)[O-])ccc21)NN1C(=O)CSC1c1ccccc1", "note": "(centres undefined)", "MIC": 25}
{"smiles": "O=C(Cn1ncc2cc([N+](=O)[O-])ccc21)NN1C(=O)CSC1c1ccccc1O", "note": "(centres undefined)", "MIC": 22}
{"tested_on": "Fusarium oxysporum", "assay": "Antifungal activity against Fusarium oxysporum", "assay_type": "functional", "conditions": "not given", "units": {"MIC": "µg/mL"}}
{"smiles": "CN(C)c1ccc(/C=N/NC(=O)Cn2ncc3cc([N+](=O)[O-])ccc32)cc1", "MIC": 23}
{"smiles": "O=C(Cn1ncc2cc([N+](=O)[O-])ccc21)NN1C(=O)CSC1c1ccccc1", "note": "(centres undefined)", "MIC": 15}
{"smiles": "O=C(Cn1ncc2cc([N+](=O)[O-])ccc21)NN1C(=O)CSC1c1ccccc1O", "note": "(centres undefined)", "MIC": 15}
{"tested_on": "Salmonella typhi", "assay": "Antibacterial activity against Salmonella typhi", "conditions": "not given", "units": {"MIC": "µg/mL"}}
{"smiles": "CN(C)c1ccc(/C=N/NC(=O)Cn2ncc3cc([N+](=O)[O-])ccc32)cc1", "MIC": 32}
{"smiles": "O=C(Cn1ncc2cc([N+](=O)[O-])ccc21)NN1C(=O)CSC1c1ccccc1", "note": "(centres undefined)", "MIC": 18}
{"smiles": "O=C(Cn1ncc2cc([N+](=O)[O-])ccc21)NN1C(=O)CSC1c1ccccc1O", "note": "(centres undefined)", "MIC": 17}
{"tested_on": "Salmonella typhi", "assay": "Antibacterial activity against Salmonella typhi at 50 ug/mL", "conditions": "read-out: IZ", "units": {"zone of inhibition at 50 µg/mL": "mm"}}
{"smiles": "CN(C)c1ccc(/C=N/NC(=O)Cn2ncc3cc([N+](=O)[O-])ccc32)cc1", "zone of inhibition at 50 µg/mL": 8.6}
{"smiles": "O=C(Cn1ncc2cc([N+](=O)[O-])ccc21)NN1C(=O)CSC1c1ccccc1", "note": "(centres undefined)", "zone of inhibition at 50 µg/mL": 14.6}
{"smiles": "O=C(Cn1ncc2cc([N+](=O)[O-])ccc21)NN1C(=O)CSC1c1ccccc1O", "note": "(centres undefined)", "zone of inhibition at 50 µg/mL": 16}
{"tested_on": "Salmonella typhi", "assay": "Antibacterial activity against Salmonella typhi at 100 ug/mL", "conditions": "read-out: IZ", "units": {"zone of inhibition at 100 µg/mL": "mm"}}
{"smiles": "CN(C)c1ccc(/C=N/NC(=O)Cn2ncc3cc([N+](=O)[O-])ccc32)cc1", "zone of inhibition at 100 µg/mL": 12}
{"smiles": "O=C(Cn1ncc2cc([N+](=O)[O-])ccc21)NN1C(=O)CSC1c1ccccc1", "note": "(centres undefined)", "zone of inhibition at 100 µg/mL": 18.4}
{"smiles": "O=C(Cn1ncc2cc([N+](=O)[O-])ccc21)NN1C(=O)CSC1c1ccccc1O", "note": "(centres undefined)", "zone of inhibition at 100 µg/mL": 19.9}
